PMC8286831, “Identifying SARS-CoV-2 antiviral compounds by screening for small molecule inhibitors of nsp13 helicase” (Biochemical Journal, 2021)
Entries after “also recorded” stand apart in the source; their conditions may differ. Like-named read-outs stand apart in the source and are kept apart here.

Legend:
[1] = molecular target: SARS-CoV-2 nsp13 helicase (Severe acute respiratory syndrome coronavirus 2, UniProt P0DTD1); test: biochemical; format: biochemical; conditions: for nsp13 inhibition and detergent sensitivity: presence or absence of non-ionic detergent
[2] = molecular target: T1, SARS-CoV-2 RdRp holoenzyme (Severe acute respiratory syndrome coronavirus 2, UniProt P0DTD1); test: FRET-based RdRp strand displacement assay; format: biochemical; conditions: RNA (RdRp substrate), 0.3 mM each NTP, 0.02% Tween-20 in RdRp assay buffer; for IC50: read-out: IC50 RdRp
T1 construct: (Sf nsp12-3F/7L8 preincubated with Sf 7H8 at a 1:3 ratio); 3F (3xFlag) (C); made in house; host or cells: 'Sf', read as Spodoptera frugiperda insect cells (my inference from the prefix); details are in Bertolin et al

[3] = read-out: IC50 + 0.02% Tween-20
[4] = IC50 0.02% Tween-20 + (presence)
[5] = IC50 0.02% Tween-20 − (absence)
[6] = RNA (nsp13 substrate), 0.3 mM ATP, 0.02% Tween-20 in RdRp assay buffer

| Structure (SMILES) | IC50 + 0.02% Tween-20 [1] | IC50 ([1]; IC50 + 0.02% Tween-20) [µM] | IC50 ([1]; IC50 No detergent) [µM] | IC50 nsp13 [1, 6] | IC50 RdRp [2] | further results |
| --- | --- | --- | --- | --- | --- | --- |
| CC(C)c1ccccc1Cc1cc(C(=O)Nc2ccc(S(=O)(=O)c3ccccc3C(C)(C)C)cc2)c(O)c(O)c1O [TW-37] |  |  |  |  |  | IC50 [1, 3]: 109 µM; IC50 ([1]; read-out: IC50 No detergent): 2.8 µM; IC50 ([1]; read-out: IC50 nsp13): 39 µM; IC50 [2]: 27 µM |
| CCCc1c2oc(C(=O)O)cc(=O)c2cc2c(=O)cc(C(=O)O)n(CC)c12 [Nedocromil] | No inhibition |  |  |  |  | IC50 No detergent [1]: No inhibition |
| CCCCC/C=C\C/C=C\CCCCCCCC(=O)O [Linoleic acid] |  | 38 | 11 | No inhibition | No inhibition | IC50 [1, 4]: 36 µM; IC50 [1, 5]: 4.3 µM; nsp13 inhibition and detergent sensitivity [1]: strong sensitivity to detergents |
| CN(C)CC[C@H](CSc1ccccc1)Nc1ccc(S(=O)(=O)NC(=O)c2ccc(N3CCC(C)(C)CC3)cc2)cc1[N+](=O)[O-] [A-385358] |  |  |  |  | did not inhibit RdRp; also recorded: No inhibition | IC50 nsp13 [1]: No inhibition; IC50 [1, 3]: > 250 µM; IC50 ([1]; read-out: IC50 No detergent): 3.3 µM |
| CC1(C)O[C@@H]2C[C@H]3[C@@H]4C[C@H](F)C5=CC(=O)C=C[C@]5(C)[C@@]4(F)[C@@H](O)C[C@]3(C)[C@]2(C(=O)CO)O1 [Fluocinolone Acetonide] | No inhibition |  | > 250 |  |  |  |
| COc1cc(C(N)=O)ccc1NC(=O)[C@@H]1N[C@@H](CC(C)(C)C)[C@@]2(C(=O)Nc3cc(Cl)ccc32)[C@H]1c1cccc(Cl)c1F [RO8994] |  |  |  |  | No inhibition | IC50 nsp13 [1]: No inhibition; IC50 [1, 3]: > 250 µM; IC50 ([1]; read-out: IC50 No detergent): 2.9 µM |
| CC1(C)CCC(c2ccc(Cl)cc2)=C(CN2CCN(c3ccc(C(=O)NS(=O)(=O)c4ccc(N[C@H](CCN5CCOCC5)CSc5ccccc5)c(S(=O)(=O)C(F)(F)F)c4)cc3)CC2)C1 [Navitoclax] |  | > 250 | 1.2 |  |  | IC50 [1, 4]: > 250 µM; IC50 [1, 5]: 0.74 µM; IC50 ([1]; IC50 + 0.01% Triton X-100): 7.3 µM; IC50 ([1]; IC50 -Triton X-100): 2.2 µM; IC50 ([1]; RNA (nsp13 substrate), 0.3 mM ATP, 0.02% Tween-20 in RdRp assay buffer, read-out: IC50 nsp13): > 100 µM; nsp13 inhibition and detergent sensitivity [1]: strong sensitivity to detergents; IC50 [2]: 92 µM |
| O=C1CC(=O)c2c(Cl)c(Cl)c(Cl)c(Cl)c21 [TCID] |  |  |  |  |  | IC50 ([1]; read-out: IC50 0.02% Tween-20 + (presence)): 15 µM; IC50 ([1]; read-out: IC50 0.02% Tween-20 − (absence)): 1.9 µM; IC50 [1, 3]: 24 µM; IC50 ([1]; read-out: IC50 No detergent): 8.1 µM; IC50 ([1]; read-out: IC50 nsp13): 21 µM; IC50 [2]: 35 µM |
| Cc1ccc(F)c(NC(=O)Nc2ccc(-c3cccc4[nH]nc(N)c34)cc2)c1 [Linifanib/ABT-869, Linifanib] |  | 230 | 26 | No inhibition | No inhibition |  |
| CN1Cc2sccc2C(c2ccc(O)c(O)c2)C1 (centres unmarked) [SKF 89145] | No inhibition |  |  |  |  | IC50 No detergent [1]: No inhibition |
| CCCCCCCC/C=C\CCCCCCCC(=O)O [Oleic acid] |  | 58 | 6.8 | No inhibition | No inhibition | IC50 [1, 4]: 117 µM; IC50 [1, 5]: 14 µM |
| CC1=C(/C=C/C(C)=C/C=C/C(C)=C/C(=O)Nc2ccc(O)cc2)C(C)(C)CCC1 [Fenretinide] |  | > 250 | 9.1 | No inhibition | No inhibition | IC50 [1, 4]: > 250 µM; IC50 [1, 5]: 7.3 µM |
| COc1cccc(NC(=O)/C=C/c2ccc(Cl)cc2)c1 [SB-366791] |  |  |  | No inhibition | No inhibition | IC50 [1, 3]: > 250 µM; IC50 ([1]; read-out: IC50 No detergent): > 250 µM |
| CN(C)CC[C@H](CSc1ccccc1)Nc1ccc(S(=O)(=O)NC(=O)c2ccc(N3CCN(Cc4ccccc4-c4ccc(Cl)cc4)CC3)cc2)cc1[N+](=O)[O-] [ABT-737] |  | > 250 | 1.2 | No inhibition | No inhibition |  |
| NC(Cc1cc(O)c(O)cc1O)C(=O)O (racemic) [6-Hydroxy-DL-DOPA] | Quenching |  |  |  |  | IC50 No detergent [1]: Quenching |
| COc1cc2c(cc1Cc1cccc(Cl)c1F)c(=O)c(C(=O)O)cn2[C@H](CO)C(C)C [Elvitegravir] |  | > 250 | 22 |  |  | nsp13 inhibition and detergent sensitivity [1]: clear inhibition only in the absence of detergent |
| CS(=O)(=O)c1cccc(C[C@H](NC(=O)c2c(Cl)cc3c(c2Cl)CCN(C(=O)c2ccc4ccoc4c2)C3)C(=O)O)c1 [Lifitegrast] | No inhibition |  |  |  |  | IC50 No detergent [1]: No inhibition |
| Nc1nc2c(c(=O)[nH]1)N(C=O)C(CNc1ccc(C(=O)N[C@@H](CCC(=O)O)C(=O)O)cc1)CN2 (some centres unmarked) [Leucovorin Calcium] |  | > 250 | > 250 | No inhibition | No inhibition |  |
| O=C(N[C@H]1CCS[C@H]2CCC[C@@H](C(=O)O)N2C1=O)[C@@H](S)Cc1ccccc1 [Omapatrilat] | No inhibition |  | > 250 |  |  |  |
